Series [1] in a line: Pharmacokinetics in rats after oral administration of F18. The class given is in vivo, Sprague-Dawley rats. To be noted: oral F18 50 mg/kg; for Cmax / Tmax / half-life / MRT last / MRT inf: Sprague-Dawley; for Cmax / Tmax / half-life / MRT last / MRT inf / AUC0−∞ / Systemic exposure relative to that of the parent drug: rat blood; for Cmax / Tmax / half-life / MRT last / MRT inf / AUC0−∞: mean ± SD, n = 5; for MRT last: read-out: MRT0−t; for MRT inf: read-out: MRT0−∞; for Systemic exposure relative to that of the parent drug: from AUC0−∞. The procedure:
To investigate the pharmacokinetic characteristics of F18 and its major metabolites, five rats were intragastrically administered F18 at a dose of 50 mg/kg. Blood samples were collected in heparinized ice-bath tubes from the suborbital veniplex at 0, 0.25, 0.5, 1, 2, 4, 6, 8, 12, 16, and 24 h postdose. The blood concentrations of F18 and its major metabolites were determined by LC-MS/MS and their pharmacokinetic parameters were calculated through non-compartmental analysis using WinNonlin Version 6.1 (Pharsight, Mountain View, CA, USA).
For the blood samples, F18, M1, M3-1, and M3-2 were simultaneously quantified using the following elution gradient: Solvent B was maintained at 15% for 2 min, increased to 85% in 1 min, maintained at 85% for 5 min, decreased to 15% in 0.5 min and maintained at 15% for 4.5 min. Detection was also performed using a Finnigan TSQ Quantum MS instrument with an electrospray ionization probe operated in the positive mode.
Calibration curves for F18 and its metabolites were fitted via linearly weighted (1/x^2) least-squares regression. The correlation coefficient values of F18 and its metabolites in the incubations were >0.99 for the range 10–5,000 nM; the LOQ was 10 nM with a signal-to-noise ratio >10:1; the accuracies were 90–113% and the precisions (RSD) were <10.5%. In the blood samples, the correlation coefficient values for F18, M1, M3-1, and M3-2 were >0.99 for the range 5–2,000 nM; the LOQ was 5 nM with the signal-to-noise ratio >10:1; the accuracies were 91–112% and the precisions (RSD) were <9.6%. In addition, no interference was found in the retention time of each analyte in both the incubated samples and the blood samples.

In series [2] the target is T1, recombinant FMO1 (Homo sapiens, UniProt Q01740).
T1 construct: purchased BD Gentest (Woburn, MA, USA)
T1 sequence (Q01740 1-532): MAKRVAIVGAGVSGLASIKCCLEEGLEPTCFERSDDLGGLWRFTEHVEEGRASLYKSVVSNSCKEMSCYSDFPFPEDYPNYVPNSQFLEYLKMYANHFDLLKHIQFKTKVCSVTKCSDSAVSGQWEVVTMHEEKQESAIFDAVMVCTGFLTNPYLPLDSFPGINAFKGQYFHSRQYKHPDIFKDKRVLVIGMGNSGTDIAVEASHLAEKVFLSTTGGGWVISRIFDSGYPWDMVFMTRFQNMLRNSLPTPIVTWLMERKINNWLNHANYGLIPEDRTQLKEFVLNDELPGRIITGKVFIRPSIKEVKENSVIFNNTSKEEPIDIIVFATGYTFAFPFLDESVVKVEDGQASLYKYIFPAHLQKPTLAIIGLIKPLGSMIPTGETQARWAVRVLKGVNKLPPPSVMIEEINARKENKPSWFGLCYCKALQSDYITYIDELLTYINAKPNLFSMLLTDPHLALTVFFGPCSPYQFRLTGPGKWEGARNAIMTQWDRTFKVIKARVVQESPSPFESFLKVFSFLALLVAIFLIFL
Put plainly: Metabolism of F18 by cDNA-expressed FMO1. The class given is in vitro ADME. To be noted: F18 10 μM, 50 pmol/mL enzyme, 1 h. The method, then:
To further verify the roles of CYPs and FMOs in the metabolism of F18 in humans, F18 (10 μM) was incubated individually with 14 cDNA-expressed human CYP isozymes (50-pmol/mL CYP1A1, CYP1A2, CYP2A6, CYP2B6, CYP2C8, CYP2C9, CYP2C19, CYP2D6, CYP2E1, CYP2J2, CYP3A4, CYP4F2, CYP4F3, and CYP4A11) and three cDNA-expressed FMO enzymes (50-pmol/mL FMO1, FMO3, and FMO5). The incubation conditions were similar to those used for HLMs (described above), with the exception of the incubating time […]. Samples incubated without NADPH were used as the negative control.

Series [3] has as its system VSV-G/HIV-1 viruses. Put plainly: microbe, parasite or virus in culture. The class given is cell-based. To be noted: for IC50: Human immunodeficiency virus 1, HEK-293T, 48 h, read-out: IC50, inhibition of HIV-1 replication.
Series [4] concerns human liver microsomes. The series can be described thus: Incubation of F18 with human liver microsomes, metabolite profiling by LC-MS/MS. More on the design: key: +: Metabolite detected; −: metabolite not detected. To be noted: F18 50 μM, 1 h. The class given is in vitro ADME. The procedure: A stock solution of F18 (5 mM) was prepared in methanol. F18 (50 μM) was incubated with RLMs/DLMs/MLMs/HLMs and HLcy (0.5 mg protein/mL) in 50 mM Tris-HCl buffer containing 5 mM MgCl2 (pH 7.4) in a final volume of 200 μL. The final concentration of methanol in the incubation system was 1% (v/v). After 3 min of preincubation at 37°C, the reactions were initiated by the addition of NADPH-regenerating system (10-mM β-NADP, 100-mM 6-G-P and 10-U/mL 6-G-P-DH) or NADH. After incubation for 1 h, the reactions were terminated by the addition of two volumes of ice-cold acetonitrile. Samples without NADPH or NADH were included as controls. The incubation mixture was vortexed and centrifuged at 13,300 × g for 5 min. A 10 μL aliquot of the supernatant was injected into an LC-tandem mass spectrometer (LC-MS/MS) for analysis.
Metabolic profiling studies were performed with a Finnigan TSQ Quantum MS instrument with an electrospray ionization probe and a Finnigan SURVEYOR HPLC system (Thermo Finnigan, San Jose, CA, USA). HPLC was performed with a Zorbax SB-C18 column (2.1 × 100 mm, 3.5 μm, Agilent Corporation, CA, USA) with a column temperature of 35°C and a flow rate of 200 μL/min. F18 and its metabolites were eluted using a linear gradient method with a mobile phase consisting of solvent A (water with 0.1% formic acid) and solvent B (acetonitrile with 0.1% formic acid). […] The samples were analyzed in the positive-ionization mode, and the TSQ capillary temperature was set to 350°C. Nitrogen was used as both the sheath gas and the auxiliary gas and was delivered at 30 psi and 15 psi, respectively. The spray voltage and tube lens were set to 3,800 V and 123 V, respectively. The full-width half maximum (FWHM) was set to 0.7. MS data were acquired in the selective ion-recording mode or by collecting full scans from 200 to 600 m/z at 1 scan/s. The mass spectrometer and HPLC system were operated using Xcalibur 2.0.7 software.

Molecules are shown by their SMILES.

Broadly, the Cmax is the peak of the concentration-time curve. In general, Tmax refers to the time at which the peak concentration occurs. A word on the half-life: it is the time in which the quantity being followed falls by half. For the compound `CCCc1cc(=O)oc2c3c(c4c(c12)OC(C)(C)C=C4)OC(CO)CC3=O` (centres unmarked) [Metabolite M1], in series [1], the highest level (Cmax) was 274 ± 111 nM, the Tmax came out at 4 ± 1.6 h, the half-life was 4.8 ± 2.1 h and the MRT last amounted to 8.4 ± 0.5 h. Also, in series [1], the MRT inf was determined as 9.4 ± 1.5 h, the “Concentration in rat blood (in words)” value was “detected in high concentrations” and the “AUC0−∞” value was 3,290 h^*nM. Also, the “Metabolite detected in incubation with recombinant FMO1” value (“Metabolite detected in incubation” below) in series [2] was “not detected”. The “Potency against HIV-1 relative to the parent compound” value in series [3] was “one fifth”. In series [4], the “F18 metabolite detected in HLM” value is reported as “+”.

The IC50 is the point on the concentration scale where inhibition reaches its midpoint. In the case of `CCCc1cc(=O)oc2c3c(c4c(c12)OC(C)(C)C=C4)O[C@H](CCl)C[C@H]3O` (relative stereo) [Metabolite M3-1, trans-12-hydroxy F18], in series [1], the Cmax is 165 ± 50.9 nM, the time to peak (Tmax) turned out to be 4 ± 2.3 h, the half-life was 3.4 ± 0.64 h and the MRT last was 8.6 ± 0.6 h. Besides, in series [1], the MRT inf was found to be 8.9 ± 0.7 h, the “Concentration in rat blood (in words)” value was “detected in high concentrations”, the “AUC0−∞” value is recorded as 1,965 h^*nM and the “Systemic exposure relative to that of the parent drug” value is reported as about 38%. In series [2], the “Metabolite detected in incubation” value was “detected”. Also, the IC50 in series [3] came out at 34 nM. For the same compound, the “F18 metabolite detected in HLM” value in series [4] is “+”.

Turning to `CCCc1cc(=O)oc2c3c(c4c(c12)OC(C)(C)C=C4)O[C@H](CCl)C[C@@H]3O` (relative stereo) [Metabolite M3-2, cis-12-hydroxy F18], in series [1], the Cmax came out at 219 ± 51.2 nM, the Tmax was determined as 4 ± 2.3 h, the half-life is 3 ± 0.4 h and the MRT last is 8.8 ± 1.2 h. Further, in series [1], the MRT inf was 13.2 ± 7.2 h, the “Concentration in rat blood (in words)” value was “detected in high concentrations”, the “AUC0−∞” value is reported as 3,353 h^*nM and the “Systemic exposure relative to that of the parent drug” value is listed as about 65%. Also, the “Metabolite detected in incubation” value in series [2] is listed as “detected”. For the same compound, the IC50 in series [3] stood at 51 nM. Further, the “F18 metabolite detected in HLM” value in series [4] was “+”.

These data come from paper PMC5515859, “Metabolism of F18, a Derivative of Calanolide A, in Human Liver Microsomes and Cytosol” (Frontiers in Pharmacology, 2017).
